# Measurements: the RepoRT retention time repository (doi:10.1016/j.scitotenv.2015.08.078)
# Structures can show the parent of a compound that is named as a salt.
# Experiment: RP, Waters ACQUITY UPLC BEH C18, 100 × 2.1 mm, 1.7 µm, 0.3 mL/min, estimated dead time 0.73 min; A: water + 0.1% formic acid, pH 3; B: methanol + 0.1% formic acid, pH 3; gradient (min/%B) 0/10 14/90 16/90 18/10
# Details: stereoisomer not certain
row,Compound,LC retention time [min]
1,CC(C)(C)NCC(O)c1cc(Cl)c(N)c(C(F)(F)F)c1 (centres undefined) [Mabuterol],6.05
2,COc1ccc(NC(=O)N(C)C)cc1Cl [Metoxuron],6.3
3,CCN(CC)C(=O)SCc1ccccc1Cl [Orbencarb],11.9
4,CNC(=O)Oc1cccc2c1OC(C)(C)C2 [Carbofuran],8.15
5,[O-][n+]1nc(-n2ccnc2)nc2ccc(Cl)cc21 [Triazoxide],8.54
6,COc1cc(OC)n2nc(S(=O)(=O)Nc3c(Cl)ccc(C)c3Cl)nc2n1 [Metosulam],7.54
7,COCC(=O)N(c1c(C)cccc1C)N1CCOC1=O [Oxadixyl],6.71
8,CCOP(=S)(OCC)Oc1ccc2c(C)c(Cl)c(=O)oc2c1 [Coumaphos],12.4
9,CC(N)Cc1ccccc1 (centres undefined) [Amphetamine],3.59
10,COP(=O)(NC(C)=O)SC (centres undefined) [Acephate],1.45
11,COP(=S)(OC)SCC(=O)N(c1ccc(Cl)cc1)C(C)C [Anilofos],11.7
12,Clc1ccccc1CN1CCc2sccc2C1 [Ticlopidine],12.1
13,CCOc1cc(OP(=S)(OC)OC)nc(CC)n1 [Etrimfos],11.6
14,CCOP(=S)(OCC)Oc1cc(C)nc(N(CC)CC)n1 [Pirimiphos-ethyl],13
15,COCC1OC(=O)c2coc3c2C1(C)C1=C(C3=O)C2CCC(=O)C2(C)CC1OC(C)=O (centres undefined) [Wortmannin],7.75
16,CCOP(=S)(OCC)Oc1nc(Cl)c(Cl)cc1Cl [Chloropyrifos],14.1
17,CC(C)N1C(=O)N(c2ccccc2)CSC1=NC(C)(C)C [Buprofezin],13.1
18,CC(C)(C)N(NC(=O)c1ccc(Cl)cc1)C(=O)c1ccccc1 [Halofenozide],9.91
19,CCCSP(=O)(OCC)SCCC [Ethoprophos],11.1
20,COP(=S)(OC)Oc1c(Cl)cc(C)cc1Cl [Tolclofos-methyl],12.1
21,O=C1CCc2cccc3c2N1CC3 [Pyroquilon],7.09
22,c1coc(-c2nc3ccccc3[nH]2)c1 [Fuberidazole],6.61
23,CCOc1cc(Oc2ccc(C(F)(F)F)cc2Cl)ccc1[N+](=O)[O-] [Oxyfluorfen],13.8

row,Compound,LC retention time [min]
1,CN(C)C1C(=O)C(C(N)=O)=C(O)C2(O)C(=O)C3=C(O)c4c(O)cccc4C(C)(O)C3C(O)C12 (centres undefined) [Oxytetracycline],3.94
2,CN1C(=O)CN=C(c2ccccc2)c2cc(Cl)ccc21 [Diazepam],10.9
3,Cc1cnc2c(C(=O)O)c(Cl)ccc2c1 [Quinmerac],3.44
4,CN(C)CCC(c1ccc(Cl)cc1)c1ccccn1 (centres undefined) [Chlorpheniramine],7.27
5,CCCSP(=S)(OCC)Oc1ccc(SC)cc1 (centres undefined) [Sulprofos],14.2
6,CC12CCC(=O)C=C1CCC1C2C(O)CC2(C)C1CCC2(O)C(=O)CO (centres undefined) [Hydrocortisone],8.53
7,COC(=O)C(C)Oc1ccc(Oc2cnc3cc(Cl)ccc3n2)cc1 (centres undefined) [Quizalofop methyl],12.1
8,C#CCOC(=O)C(C)Oc1ccc(Oc2ncc(Cl)cc2F)cc1 (centres undefined) [Clodinafop-propargyl],11.5
9,CC(C)OP(=O)(OC(C)C)SCc1ccccc1 [Iprobenfos],11.5
10,CC1CCCCC1NC(=O)Nc1ccccc1 (centres undefined) [Siduron A],9.88
11,CCN(CC)c1nc(C)cc(OP(=S)(OC)OC)n1 [Pirimiphos-methyl],12.4
12,CC(C)(CO)NCC(O)c1cc(Cl)c(N)c(Cl)c1 (centres undefined) [Hydroxymethyl clenbuterol],4.17
13,Clc1ccc(C2(Cn3cncn3)CC(Br)CO2)c(Cl)c1 (centres undefined) [Bromuconazole I],10.6
14,COc1ccc(-c2ccccc2)cc1NNC(=O)OC(C)C [Bifenazate],10.8
15,CCS(=O)Cc1ccccc1OC(=O)NC (centres undefined) [Ethiofencarb sulfoxide],4.6
16,CC(C)(C)NCC(O)c1ccccc1Cl (centres undefined) [Tulobuterol],5.6
17,CCOc1ccccc1OS(=O)(=O)NC(=O)Nc1nc(OC)cc(OC)n1 [Ethoxysulfuron],8.41
18,C=CCC1=C(C)C(OC(=O)C2C(C=C(C)C)C2(C)C)CC1=O (centres undefined) [Allethrin],13.1
19,CCON=C(OC(=O)c1ccccc1)c1c(OC)ccc(Cl)c1OC [Benzoximate],12.1
20,CCOC(=O)C1C(OC(=O)c2ccccc2)CC2CCC1N2C (centres undefined) [Cocaethylene],6.53
21,CC12C=CC(=O)C=C1CCC1C3CC(O)C(O)(C(=O)CO)C3(C)CC(O)C12F (centres undefined) [Triamcinolone],6.95
22,C=CC1(C)CC(OC(=O)CSCCN(CC)CC)C2(C)C(C)CCC3(CCC(=O)C32)C(C)C1O (centres undefined) [Tiamulin],9.22
23,O=C(Nc1ccccc1-c1ccc(Cl)cc1)c1cccnc1Cl [Boscalid],10.7

row,Compound,LC retention time [min]
1,CC(C)(C)NCC(O)c1cc(Br)c(N)c(Br)c1 (centres undefined) [Brombuterol],5.9
2,CCC(C)n1c(=O)[nH]c(C)c(Br)c1=O (centres undefined) [Bromacil],7.96
3,CCN(CC)C(=O)C(C)Oc1cccc2ccccc12 (centres undefined) [Napropamide],11
4,CCCC(Cn1cncn1)c1ccc(Cl)cc1Cl (centres undefined) [Penconazole],11.6
5,Cc1cc(C)nc(NC(=O)NS(=O)(=O)c2ccccc2C(=O)OC2COC2)n1 [Oxasulfuron],6.3
6,C=CCOC(Cn1ccnc1)c1ccc(Cl)cc1Cl (centres undefined) [Imazalil],9.14
7,CC1COc2ccccc2N1C(=O)C(Cl)Cl (centres undefined) [Benoxacor],9.47
8,Cc1cc(C2CC2)nc(Nc2ccccc2)n1 [Cyprodinil],10.7
9,CCc1cccc(CC)c1N(COC)C(=O)CCl [Alachlor],11.7
10,CC(C)=NOCCOC(=O)C(C)Oc1ccc(Oc2cnc3cc(Cl)ccc3n2)cc1 (centres undefined) [Propaquizafop],12.9
11,Cc1cc(NS(=O)(=O)c2ccc(N)cc2)no1 [Sulfamethoxazole],3.91
12,CCn1cc(C(=O)O)c(=O)c2cc(F)c(N3CCN(C)CC3)cc21 [Pefloxacin],4.09
13,CCC1(C2OC(C3OC(O)(CO)C(C)CC3C)CC2C)CCC(C2(C)CCC3(CC(O)C(C)C(C(C)C(OC)C(C)C(=O)O)O3)O2)O1 (centres undefined) [Monensin],15.3
14,O=C(NC(=O)c1c(F)cccc1F)Nc1cc(Cl)c(OC(F)(F)C(F)C(F)(F)F)cc1Cl (centres undefined) [Lufenuron],9.67
15,CC(C)NCC(O)COc1ccc(CC(N)=O)cc1 (centres undefined) [Atenolol],8.74
16,N#Cc1c[nH]cc1-c1cccc(Cl)c1Cl [Fenpiclonil],9.52
17,COC(=O)Nc1nc2ccccc2[nH]1 [Carbendazim],3.42
18,O=C(Nc1ccc(F)cc1F)c1cccnc1Oc1cccc(C(F)(F)F)c1 [Diflufenican],12.7
19,CON(C)C(=O)Nc1ccc(Br)c(Cl)c1 [Chlorbromuron],10.1
20,CC(Oc1ccc(Oc2nc3ccc(Cl)cc3o2)cc1)C(=O)O (centres undefined) [Fenoxaprop],11.6
21,CC1CC2C3CC(F)C4=CC(=O)C=CC4(C)C3(F)C(O)CC2(C)C1(O)C(=O)CO (centres undefined) [Flumethasone],9.72
22,CCC(C)Nc1c([N+](=O)[O-])cc(C(C)(C)C)cc1[N+](=O)[O-] (centres undefined) [Butralin],13.5
23,CNC(=O)Oc1cccc2c1OC(C)(C)C2O (centres undefined) [Carbofuran-3-OH],4.08

row,Compound,LC retention time [min]
1,CCOP(=O)(Sc1ccccc1)Sc1ccccc1 [Edifenphos],11.7
2,CNC(=O)Oc1cc(C)c(S(C)(=O)=O)c(C)c1 [Methiocarb sulfone],4.46
3,CC1(C)C(C(=O)OC(C#N)c2cccc(Oc3ccccc3)c2)C1(C)C (centres undefined) [Fenpropathrin],13.7
4,COc1ccc(C(O)(c2cncnc2)C2CC2)cc1 (centres undefined) [Ancymidol],7.72
5,CNC(=O)ON=C(SC)C(=O)N(C)C [Oxamyl],2.84
6,CCNc1nc(Cl)nc(NC(C)(C)C)n1 [Terbuthylazine],10.5
7,COc1nc(C)nc(NC(=O)NS(=O)(=O)c2ccccc2OCCCl)n1 [Triasulfuron],6.67
8,CCn1cc(C(=O)O)c(=O)c2ccc(C)nc21 [Nalidixic acid],7.99
9,CC(=O)Nc1ccc(S(=O)(=O)Nc2ccc([N+](=O)[O-])cc2)cc1 [Sulfanitran],7.27
10,O=C(NC(=O)c1c(F)cccc1F)Nc1cc(Cl)c(OC(F)(F)C(F)F)c(Cl)c1 [Hexaflumuron],12.6
11,FC(F)C(F)(F)OCC(Cn1cncn1)c1ccc(Cl)cc1Cl (centres undefined) [Tetraconazole],11.6
12,COc1cc(OC)c(C(=O)CCCN2CCCC2)c(OC)c1 [Buflomedil HCl],5
13,CCNc1nc(N)nc(Cl)n1 [Desisopropylatrazine],4.38
14,CCOP(=S)(OCC)SCn1nnc2ccccc2c1=O [Azinphos-ethyl],10.8
15,COc1ncnc(NS(=O)(=O)c2ccc(N)cc2)c1OC [Sulfadoxine],5
16,Cn1c([N+](=O)[O-])cnc1C(C)(C)O [Hydroxyipronidazole (IPZOH)],4.6
17,O=C1Nc2ccc(Cl)cc2C(c2ccccc2Cl)=NC1O (centres undefined) [Lorazepam],9.87
18,CCOP(=S)(NC(C)C)Oc1ccccc1C(=O)OC(C)C (centres undefined) [Isofenphos],12.1
19,COc1cc2c(c3oc(=O)c4c(c13)CCC4=O)C1C=COC1O2 (centres undefined) [Aflatoxin B1],7.97
20,CON=C1CC2(CC3CC(CC=C(C)CC(C)C=CC=C4COC5C(O)C(C)=CC(C(=O)O3)C45O)O2)OC(C(C)=CC(C)C)C1C (centres undefined) [Moxidectin],15.8
